pIC50: −log10 of the molar value.
Target: T1, human β-PDGF receptor (Homo sapiens, UniProt P09619)
T1 construct: expressed in transfected cells; host or cells: Chinese hamster ovary (CHO) cells
Assay: PDGF receptor phosphorylation inhibition test
Format: cell-based
Conditions: CHO cells expressing human β-PDGF receptor cDNA; concentration inhibiting 50% of PDGF receptor phosphorylation
Method: PDGF Receptor Phosphorylation Inhibition Test
This test was carried out according to the process disclosed in a literature [J. Biol. Chem., 266: 413-418 (1991)]. In this case, Chinese hamster ovary (CHO) cells to which human β-PDGF receptor cDNA had been inserted and in which it had been expressed were used in the test.

T1 sequence (P09619 33-1106): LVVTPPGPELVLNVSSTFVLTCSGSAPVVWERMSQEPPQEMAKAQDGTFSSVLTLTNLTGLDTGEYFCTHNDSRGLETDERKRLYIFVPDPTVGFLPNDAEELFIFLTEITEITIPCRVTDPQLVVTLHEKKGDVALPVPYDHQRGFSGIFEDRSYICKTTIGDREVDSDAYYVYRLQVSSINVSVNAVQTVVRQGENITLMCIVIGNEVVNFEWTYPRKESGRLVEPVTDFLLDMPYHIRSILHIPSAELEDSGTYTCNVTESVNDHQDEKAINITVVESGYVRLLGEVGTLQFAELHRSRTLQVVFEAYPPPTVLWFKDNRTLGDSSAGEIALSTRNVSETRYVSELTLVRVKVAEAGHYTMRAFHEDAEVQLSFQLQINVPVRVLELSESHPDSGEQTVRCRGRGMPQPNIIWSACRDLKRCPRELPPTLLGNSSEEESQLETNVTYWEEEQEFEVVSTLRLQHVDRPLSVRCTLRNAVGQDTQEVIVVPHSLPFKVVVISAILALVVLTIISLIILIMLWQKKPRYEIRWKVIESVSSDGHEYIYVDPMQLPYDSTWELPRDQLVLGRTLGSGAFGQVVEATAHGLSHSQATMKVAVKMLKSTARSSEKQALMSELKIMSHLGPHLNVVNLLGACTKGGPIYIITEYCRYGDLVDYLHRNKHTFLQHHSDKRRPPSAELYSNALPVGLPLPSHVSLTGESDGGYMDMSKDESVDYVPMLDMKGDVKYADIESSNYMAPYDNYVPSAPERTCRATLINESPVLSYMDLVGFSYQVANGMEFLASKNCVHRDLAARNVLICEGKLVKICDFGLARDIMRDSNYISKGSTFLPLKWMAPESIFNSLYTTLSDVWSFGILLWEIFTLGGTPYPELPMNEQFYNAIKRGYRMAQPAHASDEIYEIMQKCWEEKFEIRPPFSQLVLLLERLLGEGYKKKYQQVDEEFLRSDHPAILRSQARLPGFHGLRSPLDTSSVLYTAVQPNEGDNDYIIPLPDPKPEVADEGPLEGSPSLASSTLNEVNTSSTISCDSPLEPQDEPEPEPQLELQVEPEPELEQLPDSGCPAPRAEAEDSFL

pIC50 | Structure (SMILES)
6.42 | COc1cc2ncnc(N3CCN(C(=NC#N)NCc4ccc(Cl)cc4)CC3)c2cc1OC [Compound 31, N-(4-Chlorobenzyl)-N′-cyano-4-(6,7-dimethoxy-4-quinazolinyl)-1-piperazinecarboxamidine]
6.72 | COc1cc2ncnc(N3CCN(C(=NC#N)NCc4ccc5c(c4)OCO5)CC3)c2cc1OC [Compound 41, N′-Cyano-4-(6,7-dimethoxy-4-quinazolinyl)-N-(3,4-methylenedioxybenzyl)-1-piperazinecarboxamidine]

Same assay, conditions: CHO cells expressing human β-PDGF receptor; test compound at 10 μM

inhibition at 10 µM [%] | Structure (SMILES)
66 | O=C(Nc1ccc(Oc2ccccc2)cc1)N1CCN(c2ncnc3cnc(F)cc23)CC1 [Compound 22, N-(4-Phenoxyphenyl)-4-(6-fluoro-4-pyrido[3,4-d]pyrimidinyl)-1-piperazinecarboxamide]
82 | COc1cc2ncnc(N3CCN(C(SC)=C(C#N)C#N)CC3)c2cc1OC [Compound 64, 4-[4-(2,2-Dicyano-1-methylthiovinyl)-1-piperazinyl]-6,7-dimethoxyquinazoline]
82 | COc1cc2ncnc(N3CCN(C(NCc4cccc(Cl)c4)=C(C#N)C#N)CC3)c2cc1OC [Compound 51, 4-{4-[1-(3-Chlorobenzylamino)-2,2-dicyanovinyl]-1-piperazinyl}-6,7-dimethoxyquinazoline]
87 | COc1ccc(CNC(=C(C#N)C#N)N2CCN(c3ncnc4cc(OC)c(OC)cc34)CC2)cc1 [Compound 53, 4-{4-[2,2-Dicyano-1-(4-methoxybenzylamino)vinyl]-1-piperazinyl}-6,7-dimethoxyquinazoline]

Structure (SMILES) | inhibition at 10 µM [%]
COc1cc2ncnc(N3CCN(C(=NC#N)Oc4ccccc4)CC3)c2cc1OC [Compound 67, N-Cyano-4-(6,7-dimethoxy-4-quinazolinyl)-1-piperazinecarboximidic acid phenyl ester] | 95

Tested on: not given
Assay: not given
Conditions: not given

melting point | Structure (SMILES)
248 to 250 °C | Cc1nn(C)c2ncc(C(N)=O)c(N3CCN(C(=O)Nc4ccc(Oc5ccccc5)cc4)CC3)c12 [Compound 12, 4-(5-Carbamoyl-1,3-dimethyl-4-1H-pyrazolo[3,4-b]pyridyl)-N-(4-phenoxyphenyl)-1-piperazinecarboxamide]
270 to 275 °C (dec.) | O=C(Nc1ccc([N+](=O)[O-])cc1)N1CCN(c2ncnc3nc[nH]c23)CC1
180 to 185 °C (dec.) | Cl.Cl.Nc1nc(N2CCN(C(=S)NCc3cccnc3)CC2)c2[nH]cnc2n1
208 to 214 °C | Nc1nc(N2CCN(C(=O)Nc3ccc([N+](=O)[O-])cc3)CC2)c2[nH]cnc2n1
155 to 156 °C | Cn1ncc2c(N3CCN(C(=O)Nc4ccc(Oc5ccccc5)cc4)CC3)ncnc21
255 to 260 °C | S=C(NCc1ccccc1)N1CCN(c2ncnc3nc[nH]c23)CC1 [Compound 3, N-Benzyl-4-(6-purinyl)-1-piperazinethiocarboxamide]
178 to 185 °C | Cl.Cl.S=C(NCc1cccnc1)N1CCN(c2ncnc3nc[nH]c23)CC1
175 to 176 °C | Cn1ncc2c(N3CCN(C(=S)NCc4ccccc4)CC3)ncnc21
160 to 163 °C | Cl.Cl.S=C(NCc1cccnc1)N1CCN(c2ncnc3c2cnn3-c2ccccc2)CC1
104 to 106 °C | O=C(Nc1ccc(Oc2ccccc2)cc1)N1CCN(c2ncnc3ncccc23)CC1 [Compound 20, N-(4-Phenoxyphenyl)-4-(4-pyrido[2,3-d]pyrimidinyl)-1-piperazinecarboxamide]
244 to 258 °C | Nc1nc(N2CCN(C(=O)Nc3ccc(Oc4ccccc4)cc3)CC2)c2[nH]cnc2n1 [Compound 5, 4-(2-Amino-6-purinyl)-N-(4-phenoxyphenyl)-1-piperazinecarboxamide]
210 to 211 °C | Cn1ncc2c(N3CCN(C(=S)NCc4cccnc4)CC3)ncnc21
250 to 251 °C | O=C(Nc1ccc(Oc2ccccc2)cc1)N1CCN(c2ncnc3nc[nH]c23)CC1 [Compound 1, N-(4-Phenoxyphenyl)-4-(6-purinyl)-1-piperazinecarboxamide]
168 to 169 °C | Cn1cnc2c(N3CCN(C(=O)Nc4ccc(Oc5ccccc5)cc4)CC3)ncnc21
169 to 170 °C | S=C(NCc1ccccc1)N1CCN(c2ncnc3ncccc23)CC1 [Compound 21, N-Benzyl-4-(4-pyrido[2,3-d]pyrimidinyl)-1-piperazinethiocarboxamide]
242 to 245 °C | Nc1nc(N2CCN(C(=S)NCc3ccccc3)CC2)c2[nH]cnc2n1 [Compound 7, 4-(2-Amino-6-purinyl)-N-benzyl-1-piperazinethiocarboxamide]

Reference: patent publication US6423716B1, “Nitrogenous heterocyclic compounds” (Kyowa Hakko Kogyo Co., Ltd., priority 1998, dated 2002)
